In experiment [1] the test system is Human Pancreatic Cancer Cell Line Panc1. Nature of the experiment: Cell death assay (propidium iodide/Hoechst) in Panc1 cells with or without camptothecin. In kind it is cell-based. The following applies: 72 hours, % cell death by propidium iodide/Hoechst. The essentials:
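Panc1 cells, 10,000/well, exposed 72 h at 37 C to compound (29 uM to 0.13 uM, 0.3% DMSO) with or without 3 uM camptothecin. Propidium iodide and Hoechst staining imaged by fluorescence microscopy; % cell death = PI-stained/Hoechst-stained cells × 100.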

In another experiment the target is Bcl-2 (Homo sapiens, UniProt P10415). Put plainly: Bcl-2 binding affinity analysis (fluorescence polarization binding assay). The essentials: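 Binding to human Bcl-2 quantified in vitro by a fluorescence polarization assay.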
Chain of Bcl-2 (P10415 whole entry): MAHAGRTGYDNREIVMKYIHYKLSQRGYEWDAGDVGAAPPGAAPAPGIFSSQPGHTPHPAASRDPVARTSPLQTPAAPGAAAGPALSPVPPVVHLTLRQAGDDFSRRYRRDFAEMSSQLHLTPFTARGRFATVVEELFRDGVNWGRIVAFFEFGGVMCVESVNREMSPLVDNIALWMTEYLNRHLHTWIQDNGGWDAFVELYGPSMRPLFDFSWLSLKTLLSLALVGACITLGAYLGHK
A further experiment addresses Bcl-xL (Homo sapiens, UniProt Q07817). Nature of the experiment: Bcl-xL binding affinity analysis (fluorescence polarization binding assay). Details: scale not given here. The essentials: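 In vitro fluorescence polarization binding assay measuring compound binding to human Bcl-xL.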
(In general: Polarisation of emitted light reports the rotation of a fluorescent probe.)

The subject of experiment [2] is RL Human Follicular Lymphoma Cell Line. Nature of the experiment: Alamar blue cytotoxicity assay in RL cells. In kind it is cell-based. The note with it: Homo sapiens, 72 h incubation, read-out: Bcl RL Alamar Blue IC50. The essentials: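 Compounds tested at 29 uM to 0.013 uM final (0.3% DMSO) on 30,000 RL cells per well. After 72 h at 37 C, 5% CO2, viability read with Alamar blue.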
On the technique in general: Alamar Blue is a resazurin reagent that responds to reducing activity.

[3] abbreviates: Homo sapiens, PANC-1, without camptothecin, read-out: Panc1 − Cpt IC50.
Setting [4] is: with 3 uM Camptothecin, read-out: Panc1 + Cpt IC50.

Read-outs that look alike come from different tables or passages of the source.

Chain of Bcl-xL (Q07817 whole entry): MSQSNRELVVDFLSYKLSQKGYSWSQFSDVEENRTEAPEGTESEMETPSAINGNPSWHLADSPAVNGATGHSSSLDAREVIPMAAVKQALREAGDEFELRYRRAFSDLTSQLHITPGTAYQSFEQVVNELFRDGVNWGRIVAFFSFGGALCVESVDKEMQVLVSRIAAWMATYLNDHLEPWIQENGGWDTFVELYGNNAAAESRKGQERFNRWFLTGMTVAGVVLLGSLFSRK

A word on the IC50: it is the concentration that inhibits the measured activity by half. A word on the Ki: it is a dissociation constant, usually derived from enzyme kinetics or from competition with a known ligand. For `CC(O)C1C(CO)ON(Cc2cccc(CN(CCN(C)C)Cc3ccc4ccccc4c3)c2)C1C(=O)NC1CC2CC(C1C)C2(C)C` (stereo not shown) [Compound 375], the results for the half-inhibitory concentration (IC50) in experiment [1] (setting [3]), in experiment [1] (setting [4]) and in experiment [2] were more than 2500 nM, more than 2500 nM and more than 5000 nM, respectively. The same molecule returned a Ki at Bcl-2 of less than 800 nM. Further, the “Bcl-XL binding affinity Ki” value at Bcl-xL is “♯”.
Regarding `COc1c(CN2O[C@@H](CO)[C@@H]([C@H](C)O)[C@H]2C(=O)N[C@H]2C[C@H]3C[C@@H]([C@@H]2C)C3(C)C)cccc1-c1cccc(C(=O)N[C@H](CC(C)C)CN2CCCCCC2)c1` [Compound 483], the IC50 is more than 2500 nM in experiment [1] (setting [3]), 1800 to 2500 nM in experiment [1] (setting [4]) and 2000 to 5000 nM in experiment [2]. Besides, on Bcl-2, the Ki was less than 800 nM. The “Bcl-XL binding affinity Ki” value on Bcl-xL is “♯”.

Source of the values: patent US7851637B2, “Compounds and methods for inhibiting the interaction of BCL proteins with binding partners” (Infinity Pharmaceuticals, Inc., priority 2004, dated 2010).
